Laboratory results from US20230096766A1, “AMINO ACID HAVING FUNCTIONAL GROUP CAPABLE OF INTERMOLECULAR HYDROGEN BONDING, PEPTIDE COMPOUND CONTAINING SAME AND METHOD FOR PRODUCTION THEREOF” (Chugai Seiyaku Kabushiki Kaisha, priority 2018, published 2023).
*1 amine or outer side, *2 acyl side, *3 side chain or, on linkers, in order; H or OH if unused. Where a SMILES comes first, the peptide text is derived from it. Bridges are numbered along the chain shown (N, C = ends). [ ]: non-standard residue; d: D form. The star is where a group is joined. X5 = O=C([C@H](CCC[C@@H]1CC(F)(F)CN1)N[*:1])[*:2]; Ethyl(2-morpholino) = C1CN(CC*)CCO1; Propyl(2,2-Me2,3-OH) = CC(C)(CO)C*; NMeF = CN[C@@H](Cc1ccccc1)C(=O)O; NMeGABA = CN(CCCC(=O)[*:2])[*:1]; NMeL = CN[C@@H](CC(C)C)C(=O)O; Butyl(3R-OH) = C[C@@H](O)CC*; NMeV = CN[C@H](C(=O)O)C(C)C; NMeAbu = CC[C@H](NC)C(=O)O; NMeA = CN[C@@H](C)C(=O)O; Piperidide = C1CCN(*)CC1; dNMeA = CN[C@H](C)C(=O)O; CH2CONHMe = CNC(=O)C*; Me2NCH2CH2 = CN(C)CC*; NBuGly = CCCCNCC(=O)O; NPrGly = CCCNCC(=O)O; Sar = CNCC(=O)O; tBu = CC(C)(C)*

Assay: Membrane permeability test of cyclic peptides (Caco-2, modified/improved method of WO 2018/124162)
Details: human
[1] = Caco-2, Caco-2 (cm/sec), membrane permeability of cyclic peptides, Caco-2
[2] = Caco-2, Caco-2 (membrane permeability), Table 10, cyclic peptides containing Ser(S-4-F2-Pyrro-Me) (G) or Nva(2-R-4-F2-Pyrro) (H)

Q: Which Papp [1] does the source give for CCCCN1CC(=O)N(C)[C@@H](CC(C)C)C(=O)N[C@H](C(=O)N2CCCCC2)CC(=O)N(C)[C@@H](C(C)C)C(=O)N[C@@H](CC(C)C)C(=O)N(C)[C@@H](CC(C)C)C(=O)N(C)[C@@H](Cc2ccccc2)C(=O)N[C@@H](COCC[C@@H](C)O)C(=O)N(C)[C@@H](Cc2ccccc2)C(=O)N(C)[C@@H](C(C)C)C(=O)N[C@@H]([C@@H](C)O)C1=O [AP116] ([NMeV]L[NMeL][NMeF]S(Butyl(3R-OH))[NMeF][NMeV]T[NBuGly][NMeL]D-Piperidide; lactam N-11) here?
A: 0.89 ×10⁻⁶ cm/s

Q: Which Papp (Caco-2, Caco-2, Papp, membrane permeability, cyclic peptides comprising Ser(Et-2-NMe2) or Gln(Ms) (Table 27)) does the source give for CC(C)C[C@@H]1NC(=O)[C@H](Cc2ccccc2)N(C)C(=O)[C@H](Cc2ccccc2)N(C)C(=O)[C@H](COCCN(C)C)NC(=O)[C@H](CC(C)C)N(C)C(=O)CCCN(C)C(=O)C[C@@H](C(=O)N2CCCCC2)NC(=O)[C@H](CC(C)C)N(C)C(=O)[C@H](CC(C)C)N(C)C(=O)[C@H]([C@@H](C)O)NC(=O)[C@H](CC(C)C)N(C)C1=O [pd55] ([NMeGABA][NMeL]S(Me2NCH2CH2)[NMeF][NMeF]L[NMeL]T[NMeL][NMeL]D-Piperidide; lactam N-11) here?
A: 0.1 ×10⁻⁶ cm/s

Q: Which Papp (Caco-2, Caco-2, Papp, membrane permeability, cyclic peptides comprising MeAbu(pip-4-F2), MeAbu(Mor), Ser(Et-2-Mor), MeAbu(pip-3-F2) or Abu(5-Oxo-Odz) (Table 29)) does the source give for CC[C@H](C)[C@@H]1NC(=O)[C@H](CC(C)C)N(C)C(=O)CCCN(C)C(=O)C[C@@H](C(=O)N2CCCCC2)NC(=O)[C@H](CC(C)C)N(C)C(=O)[C@H](CC(C)C)N(C)C(=O)[C@H](COCCN2CCOCC2)NC(=O)[C@H](CC(C)C)N(C)C(=O)[C@H](COC(C)(C)C)NC(=O)[C@H](CC)N(C)C(=O)[C@H](Cc2ccccc2)N(C)C1=O [pd485] ([NMeGABA][NMeL]I[NMeF][NMeAbu]S(tBu)[NMeL]S(Ethyl(2-morpholino))[NMeL][NMeL]D-Piperidide; lactam N-11) here?
A: 1.2 ×10⁻⁶ cm/s

Q: Which Papp (Caco-2, Caco-2 (cm/sec), Table 36, Papp, sequences having Papp ≥ 1.0 × 10^−6 at ARC = 3) does the source give for CC[C@H](C)[C@@H]1NC(=O)[C@@H](C)N(C)C(=O)C[C@@H](C(=O)N(C)[C@@H](Cc2ccccc2)C(=O)N[C@@H](C)C(=O)N2CCCCC2)NC(=O)[C@H](Cc2ccccc2)N(C)C(=O)CN(C)C(=O)[C@H]([C@@H](C)O)NC(=O)[C@H](C)N(C)C(=O)[C@H](C(C)C)N(C)C(=O)[C@H](Cc2ccccc2)NC(=O)[C@H](CC(C)C)N(C)C(=O)[C@H](CC(C)C)N(C)C1=O [pd222] ([dNMeA]I[NMeL][NMeL]F[NMeV][NMeA]T[Sar][NMeF]D[NMeF]A-Piperidide; lactam N-11) here?
A: 1.1 ×10⁻⁶ cm/s

Q: For CCCN1CC(=O)N(C)[C@@H](CC(C)C)C(=O)N[C@@H](CC(C)C)C(=O)N(C)[C@@H](Cc2ccccc2)C(=O)N(C)[C@@H](CC(C)C)C(=O)N[C@H](C(=O)N2CCCCC2)CC(=O)N[C@H](CC(C)C)C(=O)N(C)[C@@H](Cc2ccccc2)C(=O)N[C@@H](COCC(=O)NC)C(=O)N(C)[C@@H](CC(C)C)C(=O)N[C@@H]([C@@H](C)O)C1=O [Compound I01] ([dL][NMeF]S(CH2CONHMe)[NMeL]T[NPrGly][NMeL]L[NMeF][NMeL]D-Piperidide; lactam N-11), which Papp (Caco-2, Caco-2 (membrane permeability), Table 12, cyclic peptides containing Ser(NMe-Aca) (I) or Gln(Me) (J)) is on record?
A: 0.27 ×10⁻⁶ cm/s

Q: With CCCCN1CC(=O)N(C)[C@@H](Cc2ccccc2)C(=O)N(C)[C@@H](CC(C)C)C(=O)N[C@@H](C(C)C)C(=O)N(C)[C@@H](CC(C)C)C(=O)N[C@H](C(=O)N2CCCCC2)CC(=O)N(C)CC(=O)N(C)[C@@H](C(C)C)C(=O)N[C@@H](CCC[C@@H]2CC(F)(F)CN2)C(=O)N(C)[C@@H](CC(C)C)C(=O)N[C@@H]([C@@H](C)O)C1=O [Compound H06] ([Sar][NMeV][X5][NMeL]T[NBuGly][NMeF][NMeL]V[NMeL]D-Piperidide; lactam N-11) as the molecule, how does the Papp [2] read?
A: 0.27 ×10⁻⁶ cm/s

Q: For CC(C)C[C@@H]1NC(=O)[C@H](Cc2ccccc2)N(C)C(=O)[C@H](Cc2ccccc2)N(C)C(=O)[C@H](COCC(C)(C)CO)NC(=O)[C@H](CC(C)C)N(C)C(=O)CCCN(C)C(=O)C[C@@H](C(=O)N2CCCCC2)NC(=O)[C@H](CC(C)C)N(C)C(=O)[C@H](CC(C)C)N(C)C(=O)[C@H]([C@@H](C)O)NC(=O)[C@H](CC(C)C)N(C)C1=O [AP119] ([NMeGABA][NMeL]S(Propyl(2,2-Me2,3-OH))[NMeF][NMeF]L[NMeL]T[NMeL][NMeL]D-Piperidide; lactam N-11), which Papp [1] is on record?
A: 0.34 ×10⁻⁶ cm/s

Q: Which Papp [2] does the source give for CCCCN1CC(=O)N(C)[C@@H](Cc2ccccc2)C(=O)N(C)[C@@H](CC(C)C)C(=O)N[C@@H](CCC[C@@H]2CC(F)(F)CN2)C(=O)N(C)[C@@H](CC(C)C)C(=O)N[C@H](C(=O)N2CCCCC2)CC(=O)N(C)CC(=O)N(C)[C@@H](CC(C)C)C(=O)N[C@@H](C(C)C)C(=O)N(C)[C@@H](CC(C)C)C(=O)N[C@@H]([C@@H](C)O)C1=O [Compound H07] ([Sar][NMeL]V[NMeL]T[NBuGly][NMeF][NMeL][X5][NMeL]D-Piperidide; lactam N-11) here?
A: 0.16 ×10⁻⁶ cm/s

Q: Which Papp [1] does the source give for CC(C)C[C@@H]1NC(=O)[C@H](C(C)C)N(C)C(=O)C[C@@H](C(=O)N2CCCCC2)NC(=O)[C@H](CC(C)C)N(C)C(=O)CN(C)C(=O)[C@H]([C@@H](C)O)NC(=O)[C@H](C(C)C)N(C)C(=O)[C@H](Cc2ccccc2)N(C)C(=O)[C@H](COCC[C@@H](C)O)NC(=O)[C@H](Cc2ccccc2)N(C)C(=O)[C@H](CC(C)C)N(C)C1=O [AP113] ([NMeV]L[NMeL][NMeF]S(Butyl(3R-OH))[NMeF][NMeV]T[Sar][NMeL]D-Piperidide; lactam N-11) here?
A: 1.7 ×10⁻⁶ cm/s
